Source: US7696166B2, “Use of cyclosporin alkyne/alkene analogues for preventing or treating viral-induced disorders” (Albany Molecular Research, Inc., priority 2006, dated 2010)
In brackets after ≈: the same amount, converted by molar mass. Entries after “also recorded” stand apart in the source; their conditions may differ.

Tests used:
cyclophilin A = cyclophilin A (Homo sapiens, UniProt P62937); settings: background; cited from earlier work
HIV-1 = settings: literature reports, background; cited from earlier work
hepatitis C virus = settings: Paeshuyse et al. 2005; cited from earlier work
[1] = test system: concanavalin A-stimulated murine splenocytes; assay: Concanavalin A (ConA)-stimulated murine splenocyte assay; format: cell-based, BALB/c mice; settings: for IC50: novel cyclosporin alkyne analogue, ConA-stimulated murine splenocytes, [3H]thymidine incorporation
Method: Male BALB/c mice, at 5 to 7 weeks of age, were sacrificed by CO2 inhalation. Spleens were removed and dissociated by pushing through a nylon cell strainer. The splenocytes were washed in RPMI 1640/5% fetal calf serum (FCS) and pelleted at 400×g. Red blood cells were then lysed by resuspending the cell pellet in ACK lysis buffer (150 mM NH4Cl, 1 mM KHCO3, 0.1 mM EDTA, 3 mL per spleen) for 10 min at room temperature. After pelleting at 400×g, the cells were washed by resuspending in RPMI 1640/5% FCS and repelleting. The cell pellet was resuspended in RPMI 1640/5% FCS and again passed through a cell strainer to remove cell aggregates. The cells were then counted and adjusted to 2×10^6 cells/ml in RPMI 1640/10% FCS/50 μM 2-mercaptoethanol. Cell viability was assessed by Trypan blue staining. Cyclosporin A or the test compound and two micrograms of concanavalin A were added to the wells of a 96 well plate, prior to the addition of 2×10^5 splenocytes. The cells were cultured in a 37° C. CO2 incubator for 2 days and then pulsed with 1 μCi of [^3H]thymidine for 6 hours. Cells were harvested onto filtermats with a TomTec 96 well plate harvester and lysed with H2O. The filtermat and scintillation fluid were sealed in a plastic sleeve. [^3H]thymidine incorporation was measured with a Wallac Trilux plate counter. Initial screens were done at a fixed value of 100 ng/ml test compound. IC50s were calculated from 7 point concentration-response curves using GraphPad software.

calcineurin = settings: background; cited from earlier work
[2] = cited from earlier work

Chain of cyclophilin A (P62937 whole entry): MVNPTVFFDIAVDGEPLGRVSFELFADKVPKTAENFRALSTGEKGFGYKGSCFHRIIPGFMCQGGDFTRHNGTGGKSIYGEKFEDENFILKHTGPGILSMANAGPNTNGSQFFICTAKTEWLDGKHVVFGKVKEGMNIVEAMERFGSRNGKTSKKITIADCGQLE

For C/C=C/C[C@@H](C)[C@@H](O)[C@H]1C(=O)N[C@@H](CC)C(=O)N(C)[C@H](C)C(=O)N(CC)[C@@H](C(C)C)C(=O)N[C@@H](C(C)C)C(=O)N(C)[C@@H](CC(C)C)C(=O)N[C@@H](C)C(=O)N[C@H](C)C(=O)N(C)[C@@H](CC(C)C)C(=O)N(C)[C@@H](CC(C)C)C(=O)N(C)[C@@H](C(C)C)C(=O)N1C [DEBIO-025], the “binding affinity for cyclophilin A” value (cyclophilin A) is given as “potent binding affinity”, the anti-HIV-1 activity (HIV-1) is given as “effective for the treatment of HIV-1” and the “inhibition of hepatitis C virus replication” value (hepatitis C virus) is given as “potent and selective inhibition”.
With CCC1NC(=O)C(C(O)C(C)CC=CC#CBr)N(C)C(=O)C(C(C)C)N(C)C(=O)C(CC(C)C)N(C)C(=O)C(CC(C)C)N(C)C(=O)C(C)NC(=O)C(C)NC(=O)C(CC(C)C)N(C)C(=O)C(C(C)C)NC(=O)C(CC(C)C)N(C)C(=O)CN(C)C1=O (centres unmarked) [Example 15, cyclosporin alkynyl bromide] the “IC50” value [1] was 8 ng/mL.
With CC[C@@H]1NC(=O)[C@H]([C@H](O)[C@H](C)C/C=C/C#CC2CC2)N(C)C(=O)[C@H](C(C)C)N(C)C(=O)[C@H](CC(C)C)N(C)C(=O)[C@H](CC(C)C)N(C)C(=O)[C@@H](C)NC(=O)[C@H](C)NC(=O)[C@H](CC(C)C)N(C)C(=O)[C@H](C(C)C)NC(=O)[C@H](CC(C)C)N(C)C(=O)CN(C)C1=O [Example 33, cyclosporin cyclopropyl alkyne] the “potency in immunosuppression compared to cyclosporin A and ISATX247” value ([1]; FIG. 1 legend) was “enhanced or similar potency” and the “IC50” value [1] was 9 ng/mL (≈ 7.18 nM).
In the case of C/C=C/C[C@@H](C)[C@@H](O)[C@H]1C(=O)N[C@@H](CC)C(=O)N(C)CC(=O)N(C)[C@@H]([C@@H](C)CC)C(=O)N[C@@H](C(C)C)C(=O)N(C)[C@@H](CC(C)C)C(=O)N[C@@H](C)C(=O)N[C@H](C)C(=O)N(C)[C@@H](CC(C)C)C(=O)N(C)[C@@H](CC(C)C)C(=O)N(C)[C@@H](C(C)C)C(=O)N1C [SDZ NIM 811], the inhibition of calcineurin (calcineurin) is given as “does not inhibit”, the immunosuppressive activity ([2]; Mlynar et al. 1997, background) is given as “completely devoid of immunosuppressive activity; also recorded: none of the immunosuppressive activity” and the anti-HIV-1 activity (HIV-1) is given as “potent and selective anti-HIV-1 activity”.
For CC#CC[C@@H](C)[C@@H](O)[C@H]1C(=O)N[C@@H](CC)C(=O)N(C)CC(=O)N(C)[C@@H](CC(C)C)C(=O)N[C@@H](C(C)C)C(=O)N(C)[C@@H](CC(C)C)C(=O)N[C@@H](C)C(=O)N[C@H](C)C(=O)N(C)[C@@H](CC(C)C)C(=O)N(C)[C@@H](CC(C)C)C(=O)N(C)[C@@H](C(C)C)C(=O)N1C [known cyclosporin alkyne], the “relative immunosuppressive activity compared to cyclosporin A” value ([2]; Rich et al., J. Med. Chem. 33:999-1009 (1990)) is given as 10%.
With cyclosporin alkynyl iodide [Example 13] the “IC50” value [1] was 1 ng/mL.
